Laboratory results published in patent publication US20210284618A1, “FURANOCHALCONES AS INHIBITORS OF CYP1A1, CYP1A2 AND CYP1B1 FOR CANCER CHEMOPREVENTION” (Council of Scientific & Industrial Research, priority 2016, published 2021).

Experiments:
[1] = target: T1, CYP1A1 (Homo sapiens, UniProt P04798); experiment: In-vitro CYP450 1A1 enzyme inhibition in Saccharosomes; format: biochemical; details: human, Saccharosomes containing CYP1A1, pH 7.4, probe ethoxyresorufin (5 μM), % inhibition of CYP1A1 in Saccharosomes at 10 μM, 10 μM test compound, 5 μM ethoxyresorufin
T1 construct: host or cells: yeast microsomes (Saccharosomes)
T1 sequence (P04798 1-512): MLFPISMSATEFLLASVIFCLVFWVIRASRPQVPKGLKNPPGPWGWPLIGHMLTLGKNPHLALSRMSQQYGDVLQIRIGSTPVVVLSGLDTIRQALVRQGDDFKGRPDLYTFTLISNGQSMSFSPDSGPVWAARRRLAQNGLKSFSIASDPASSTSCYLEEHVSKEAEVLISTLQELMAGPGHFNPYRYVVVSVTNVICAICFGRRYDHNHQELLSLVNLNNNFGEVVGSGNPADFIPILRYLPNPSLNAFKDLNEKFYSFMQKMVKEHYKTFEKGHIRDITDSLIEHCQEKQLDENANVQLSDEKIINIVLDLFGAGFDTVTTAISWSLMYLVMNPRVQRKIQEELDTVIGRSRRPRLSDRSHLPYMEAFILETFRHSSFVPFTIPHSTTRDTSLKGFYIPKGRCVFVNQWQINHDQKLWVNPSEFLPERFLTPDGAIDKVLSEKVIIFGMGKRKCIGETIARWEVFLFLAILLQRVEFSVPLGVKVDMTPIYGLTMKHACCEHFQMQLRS
Procedure: Example 23. In-vitro CYP450 1A1 enzyme inhibition in Saccharosomes™: The screening method utilizes 384-well microplates to rapidly ascertain relative percentage inhibition of CYP1A1 by a library of compounds. Each reaction was performed in black, clear-bottomed 384-well microplates. A reaction volume of 50 μl comprised of 0.5 pmol of the cytochrome P450 CYP1A1 (Saccharosomes), 5 μM of ethoxyresorufin substrate (which contributes 0.05% DMSO to the well), 10 μM of potential inhibitor test article (which contributes 0.5% DMSO to the well), A P450 reductase NADPH regenerating system (1.3 mM NADP+, 3.3 mM glucose-6-0.02 units phosphate and glucose-6-Phosphate dehydrogenase), potassium phosphate buffer (final well concentration 100 mM, pH 7.4) and water. Very small quantities of magnesium chloride and sodium citrate are added to the NADPH regenerating system, in line with standard published protocols. The potential inhibitor (test article) was pre-incubated with CYP1A1 of at least 20 minutes at 30° C. After this period, the remainder of the reagents required in the assay was added to initiate the process. The reaction mixture was incubated for another 20 minutes at 30° C. The reaction was stopped by adding an 80% acetonitrile, 20% 0.5 M Tris solution. The reactions were monitored using the Biotek Synergy HT plate reader by measuring the endpoint reaction at Excitation 530/(25 bandwidth) & Emission 590/(20 bandwidth) using a gain/sensitivity setting of 60. The mean of the quadruplicates of the negative control (solvent inactivated CYP1A1) was deducted from the mean of potential inhibitor (test article) samples. The percentage was then derived relative to the mean of the wells without inhibitor.
(§1) Example 25. IC50 determination for best compound against CYP1A1, CYP1B1 and other CYPs in Saccharosomes. Compounds were serially diluted to six different concentrations with 10% DMSO in a Sero-Well white microplate. The experiment was performed in a similar way as described above in examples 23 and 24.

[2] = target: T1, CYP1A1; experiment: CYP1A1 inhibition in HEK293 cells transfected with pcDNA3.1/CYP1A1 (live cells); format: cell-based; details: for inhibition at 10 μM: human, HEK293 cells transfected with pcDNA3.1/CYP1A1 (live cells), probe EROD (5 μM), % inhibition of CYP1A1 in HEK293 cells at 10 μM, 5 μM EROD
Procedure: Example 26. In-vitro CYP450 inhibition in HEK293 cells transfected with pcDNA3.1/CYP1A1 against 5 μM EROD. […] The HEK293 cells used here was procured from ‘European Collection of Authenticated Cell Cultures’ (catalog number. ECACC 85120602).

[3] = target: T2, CYP1B1 (Homo sapiens, UniProt Q16678); experiment: In-vitro CYP450 1B1 enzyme inhibition in Saccharosomes; format: biochemical; parameters: purchased CYP Design Ltd; host or cells: yeast microsomes (Saccharosomes); details: human, Saccharosomes (yeast-derived) with recombinant CYP1B1, probe 7-ethoxyresorufin (5 μl of 0.1 mM), % inhibition of CYP1B1 in Saccharosomes at 10 μM, 10 μM test compound, 7-ethoxyresorufin
T2 sequence (Q16678 1-543): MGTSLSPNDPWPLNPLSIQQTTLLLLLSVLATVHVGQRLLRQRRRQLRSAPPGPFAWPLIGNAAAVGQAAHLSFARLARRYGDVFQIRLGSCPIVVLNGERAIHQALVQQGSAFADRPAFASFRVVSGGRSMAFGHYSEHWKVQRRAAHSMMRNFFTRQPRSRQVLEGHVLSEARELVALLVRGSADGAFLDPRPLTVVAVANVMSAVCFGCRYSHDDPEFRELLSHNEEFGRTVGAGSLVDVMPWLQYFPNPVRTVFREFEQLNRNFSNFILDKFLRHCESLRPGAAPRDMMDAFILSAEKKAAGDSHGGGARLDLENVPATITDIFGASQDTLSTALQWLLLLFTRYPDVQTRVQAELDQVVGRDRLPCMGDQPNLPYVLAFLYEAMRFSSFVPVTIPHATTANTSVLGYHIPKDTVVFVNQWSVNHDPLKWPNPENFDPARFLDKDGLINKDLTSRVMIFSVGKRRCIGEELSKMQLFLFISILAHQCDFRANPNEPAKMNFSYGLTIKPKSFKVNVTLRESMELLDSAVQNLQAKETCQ
Procedure: Example 24. In-vitro CYP450 1B1 enzyme inhibition in Saccharosomes™: Regenerating system consists of: 5 μl Solution A (183 mg of NADP++183 mg of glucose-6-phosphate+654 μl of 1.0 M magnesium chloride solution+9.15 ml of sterile ultra-pure water)+1 μl Solution B (250 Units of glucose-6-phosphate dehydrogenase+6.25 ml of 5 mM sodium citrate; mixed in a tube and made up to 10 ml with sterile ultra-pure water)+39 μl 0.2 M Kpi (0.6 ml of 1.0M K2HPO4+9.4 ml of 1.0 M KH2PO4 were mixed and made up to 50 ml with sterile ultra-pure water)+5 μl potential inhibitory compound.
as §1

[4] = target: T2, CYP1B1; experiment: CYP1B1 inhibition in live human cells (HEK293); format: cell-based

Row | melting point [°C] | inhibition at 20 min, 10 μM [1] [%] | inhibition at 10 μM [2] [%] | inhibition at 10 μM [3] [%] | IC50 [2] [nM] | IC50 [4] [nM] | SMILES
1 | 298 to 299 | 19.6 | 58.8 | – | – | – | COc1c(C(=O)/C=C/c2c(Cl)cccc2Cl)c(O)c(OC)c2occc12 [Compound 10, 3-(4,7-dimethoxy-6-hydroxybenzofuran-5-yl)-1-(2,6-dichlorophenyl)-3-oxopropene]
2 | – | > 80 | 79.6 | 49.5 | 480 | 1320 | COc1c(C(=O)/C=C/c2ccc(F)cc2)c(O)c(OC)c2occc12 [Compound 6, 3-(4,7-dimethoxy-6-hydroxybenzofuran-5-yl)-1-(4-fluorophenyl)-3-oxopropene]
3 | 300 to 301 | 21.9 | 71.6 | – | – | – | COc1c(C(=O)/C=C/c2c(F)c(F)c(F)c(F)c2F)c(O)c(OC)c2occc12 [Compound 15, 3-(4,7-dimethoxy-6-hydroxybenzofuran-5-yl)-1-(2,3,4,5,6 pentafluorophenyl)-3-oxopropene]
4 | 260 to 261 | 64.3 | 31.7 | – | – | – | CCOc1ccc(Br)cc1/C=C/C(=O)c1c(O)c(OC)c2occc2c1OC [Compound 11, 3-(4,7-dimethoxy-6-hydroxybenzofuran-5-yl)-1-(2-ethoxy,5-bromophenyl)-3-oxopropene]
